Measurements reported in patent US20240002416A1 (Rheinische-Friedrich-Wilhelms-Universität Bonn, priority 2020, published 2024).

Tests used:
human MRGPRX4-83L [1] = target: T1, human MRGPRX4-83L (Homo sapiens, UniProt Q96LA9); test: Calcium assay (human MRGPRX4 83L), recombinant astrocytes; type: cell-based
T1 construct: host or cells: CHO β-arrestin cells
In short: (§1)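 β-Galactosidase enzyme-fragment complementation in engineered CHO lines expressing human MRGPRX4 reported β-arrestin recruitment. Intracellular calcium was followed in astrocytes engineered with the 83L variant or in LN229 cells endogenously carrying the 83S variant.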

MRGPRX4-83S [2] = target: T2, MRGPRX4-83S (Homo sapiens, UniProt Q96LA9, L83S); test: β-arrestin assay (CHO β-arrestin human MRGPRX4-83S); type: cell-based; parameters: host or cells: CHO β-arrestin cells
In short: as §1

human MRGPRX4-83L [3] = target: T1, human MRGPRX4-83L; test: β-arrestin assay (CHO β-arrestin ARMS1-ProLink 2 human MRGPRX4 83L); type: cell-based
In short: as §1

MRGPRX4-83S [4] = target: T2, MRGPRX4-83S; test: Calcium assay (human glioblastoma LN229 cells expressing the MRGPRX4-83S); type: cell-based; parameters: LN229 glioblastoma cells natively expressing the MRGPRX4-83S; endogenous in cells; host or cells: LN229 human glioblastoma cells; conditions: for Emax: LN-229
In short: as §1

[5] = Table 4, calcium mobilization, MRGPRX4-83L, read-out: EC50 ± SEM
[6] = Table 4, efficacy based on maximal effect of 1 μM B-16 (set as 100%), read-out: Emax
[7] = Table 3, efficacy based on 100 nM B-16 (set as 100%), read-out: Emax
[8] = Table 3, β-arrestin recruitment, CHO cells, MRGPRX4-83S, read-out: EC50 ± SEM
[9] = Table 4, efficacy based on maximal effect of 100 nM B-16 (set as 100%), read-out: Emax
[10] = Table 4, β-arrestin recruitment, CHO cells, MRGPRX4-83L, read-out: EC50 ± SEM
[11] = Table 3, efficacy based on 30 μM H-1 (set as 100%), read-out: Emax
[12] = Table 3, calcium mobilization, LN229 cells, MRGPRX4-83S, read-out: EC50 ± SEM

T2 sequence (Q96LA9 whole entry L83S): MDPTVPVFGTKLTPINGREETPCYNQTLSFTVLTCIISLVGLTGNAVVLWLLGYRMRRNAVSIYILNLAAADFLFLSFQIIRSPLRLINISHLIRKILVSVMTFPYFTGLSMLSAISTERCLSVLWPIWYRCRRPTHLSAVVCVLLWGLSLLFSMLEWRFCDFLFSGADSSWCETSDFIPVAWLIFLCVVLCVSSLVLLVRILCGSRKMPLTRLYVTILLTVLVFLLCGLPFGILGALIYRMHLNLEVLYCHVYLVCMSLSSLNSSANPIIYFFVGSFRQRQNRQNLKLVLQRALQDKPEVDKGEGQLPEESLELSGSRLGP
T1 sequence (Q96LA9 whole entry): as the sequence (Q96LA9 whole entry L83S) above, with S83L counted along it

Row | Structure (SMILES) | EC50 (human MRGPRX4-83L [1]; [5]) [nM] | Emax (human MRGPRX4-83L [1]; [6]) [%] | Emax (MRGPRX4-83S [2]; [7]) [%] | EC50 (MRGPRX4-83S [2]; [8]) [nM] | Emax (human MRGPRX4-83L [3]; [9]) [%] | EC50 (human MRGPRX4-83L [3]; [10]) [nM] | Emax (MRGPRX4-83S [4]; [11]) [%] | EC50 (MRGPRX4-83S [4]; [12]) [nM] | melting point [°C] | also measured
1 | C#CCn1c(=O)c2c(nc(CCc3ccccc3Br)n2CC2CCC2)n(CCCCP(=O)(O)O)c1=O [B-45, (4-(8-(2-Bromophenethyl)-7-(cyclobutylmethyl)-2,6-dioxo-1-(prop-2-yn-1-yl)-1,2,6,7-tetrahydro-3H-purin-3-yl)butyl)phosphonic acid] | 12.7 | 101 | 93 | 0.298 ± 0.05 | 99 | 85.1 ± 27.9 | 97 | 0.32 ± 0.087 | 167 to 169 | 
2 | C#CCn1c(=O)c2c(nc(CCc3ccccc3Br)n2CCCl)n(CCCCP(=O)(O)O)c1=O [B-50, (4-(8-(2-Bromophenethyl)-7-(2-chloroethyl)-2,6-dioxo-1-(prop-2-yn-1-yl)-1,2,6,7-tetrahydro-3H-purin-3-yl)butyl)phosphonic acid] |  |  |  |  |  |  |  |  | 197 to 199 | EC50 (human MRGPRX4-83L [1]): 2.28 ± 0.75 nM; Emax (human MRGPRX4-83L [1]): 118%; EC50 (MRGPRX4-83S [2]): 0.301 ± 0.021 nM; Emax (MRGPRX4-83S [2]): 84%; EC50 (human MRGPRX4-83L [3]): 24.3 ± 3.2 nM; Emax (human MRGPRX4-83L [3]): 91%; EC50 (MRGPRX4-83S [4]): 0.095 ± 0.0427 nM; Emax (MRGPRX4-83S [4]): 111%
3 | C#CCn1c(=O)c2[nH]c(CCc3cccc(OC)c3)nc2n(CCCCP(=O)(O)OCC)c1=O [D-3, Ethyl hydrogen (4-(8-(3-methoxyphenethyl)-2,6-dioxo-1-(prop-2-yn-1-yl)-1,2,6,7-tetrahydro-3H-purin-3-yl)butyl)phosphonate] |  |  |  |  |  |  |  |  | 118 to 120 | EC50 (human MRGPRX4-83L [1]; Table 1, calcium mobilization, MRGPRX4-83L, read-out: EC50 ± SEM): 36.3 ± 1.8 nM; Emax (human MRGPRX4-83L [1]; Table 1, efficacy based on maximal effect of 1 μM B-16 (set as 100%), read-out: Emax): 114%; Emax (MRGPRX4-83S [2]; Table 2, efficacy based on 100 nM B-16 (set as 100%), read-out: Emax): 110%; EC50 (MRGPRX4-83S [2]; Table 2, β-arrestin recruitment, CHO cells, MRGPRX4-83S, read-out: EC50 ± SEM): 5.8 ± 1.41 nM; Emax (human MRGPRX4-83L [3]; Table 1, efficacy based on maximal effect of 100 nM B-16 (set as 100%), read-out: Emax): 112%; EC50 (human MRGPRX4-83L [3]; Table 1, β-arrestin recruitment, CHO cells, MRGPRX4-83L, means of 3-4 experiments, read-out: EC50 ± SEM): 407 ± 710 nM; Emax (MRGPRX4-83S [4]; Table 2, efficacy based on 30 μM H-1 (set as 100%), read-out: Emax): 111%; EC50 (MRGPRX4-83S [4]; Table 2, calcium mobilization, LN229 cells, MRGPRX4-83S, read-out: EC50 ± SEM): 2.65 ± 0.72 nM

Further lines, with some results ahead:

Row | EC50 (human MRGPRX4-83L [1]; [5]) [nM] | Emax (human MRGPRX4-83L [1]; [6]) [%] | Emax (MRGPRX4-83S [2]; [7]) [%] | EC50 (MRGPRX4-83S [2]; [8]) [nM] | Emax (human MRGPRX4-83L [3]; [9]) [%] | EC50 (human MRGPRX4-83L [3]; [10]) [nM] | Emax (MRGPRX4-83S [4]; [11]) [%] | EC50 (MRGPRX4-83S [4]; [12]) [nM] | melting point [°C] | Structure (SMILES) | also measured
4 | 25.2 ± 3 | 109 | 84 | 4.28 ± 0.83 | 95 | 1250 ± 410 | 112 | 0.787 ± 0.164 | 143 to 145 | C#CCn1c(=O)c2c(nc(CCc3ccccc3Br)n2CC2CCCCC2)n(CCCCP(=O)(O)O)c1=O [B-36, (4-(8-(2-Bromophenethyl)-7-(cyclohexylmethyl)-2,6-dioxo-1-(prop-2-yn-1-yl)-1,2,6,7-tetrahydro-3H-purin-3-yl)butyl)phosphonic acid] | 
5 | 267 ± 153 | 9 | 79 | 13.4 ± 0.8 | 92 | 1.44 ± 0.32 | 6 | 5.81 ± 0.58 | 129 to 131 | C#CCn1c(=O)c2c(nc(CCc3ccc(Br)cc3)n2CC2CCCC2)n(CCCCP(=O)(O)O)c1=O [B-38, (4-(8-(4-Bromophenethyl)-7-(cyclopentylmethyl)-2,6-dioxo-1-(prop-2-yn-1-yl)-1,2,6,7-tetrahydro-3H-purin-3-yl)butyl)phosphonic acid] | IC50 (human MRGPRX4-83L [1]): 949 ± 308 nM; IC50 (MRGPRX4-83S [4]): 5.23 ± 2.2 nM
6 | 0.684 ± 0.073 | 108 | 91 | 0.075 ± 0.0184 | 116 | 13.6 ± 6.1 | 109 | 0.79 ± 0.262 | 109 to 111 | C#CCn1c(=O)c2c(nc(CCc3ccccc3Br)n2C(C)C)n(CCCCP(=O)(O)O)c1=O [B-46, (4-(8-(2-Bromophenethyl)-7-isopropyl-2,6-dioxo-1-(prop-2-yn-1-yl)-1,2,6,7-tetrahydro-3H-purin-3-yl)butyl)phosphonic acid] | 
7 | 79.8 ± 36.7 | 102 | 99 | 0.932 ± 0.177 | 93 | 566 ± 106 | 107 | 1.48 ± 0.4 | 159 to 161 | C#CCn1c(=O)c2c(nc(CCc3ccccc3Br)n2CCN)n(CCCCP(=O)(O)O)c1=O [B-51, (4-(7-(2-Aminoethyl)-8-(2-bromophenethyl)-2,6-dioxo-1-(prop-2-yn-1-yl)-1,2,6,7-tetrahydro-3H-purin-3-yl)butyl)phosphonic acid] | 
